What was measured:
[1] = tested on: retinal ganglion cells (RGCs); details: cited from earlier work
Excerpt: However, in a recent study of our group we identified the protein HTRA2 as a high-affinity interaction partner of the synthetic peptide […] [16]. Thereby, this synthetic peptide encodes a complementary-determining region 1 (CDR1) of polyclonal antibody molecules, which was originally identified as a potential biomarker candidate in primary-open angle glaucoma (POAG) patients.

[2] = tested on: recombinant 6xHis-tag HTRA2 and its protein interaction partners in homogenized porcine retina; assay: Co-immunoprecipitation (Co-IP) of HTRA2 protein interaction partners, quantitative LC-MS/MS (iBAQ, volcano plot vs CTRL beads); parameters: species or system house swine (Sus scrofa); details: 2 µg HTRA2 + 10 µg compound, n = 3, vs CTRL beads
Method: The retina extraction and homogenization were performed as already described in previous publications. The use of animal by-products of house swine for scientific research purposes was approved by the Kreisverwaltung Mainz-Bingen in Germany (Identification Code: DE 07 315 0006 21, approved on 13 January 2014). In brief, retinal tissues were extracted from freshly removed porcine eye bulbs (house swine, Sus scrofa domestica Linnaeus, n = 30) provided by the local slaughterhouses (Landmetzgerei Harth, Stadecken-Elsheim, Germany). Afterwards, the retinal tissues were homogenized in 2 mL screw cap microtubes filled with 1.4/2.8 mm ceramic beads and 1 mL Tissue Protein Extraction Reagent (T-PER, Thermo Fisher Scientific, Rockford, IL, USA) using a Percellys® 24 homogenizer (VWR International GmbH, Darmstadt, Germany). The homogenized retinal samples were then centrifuged at 14,000× g for 15 min at 4 °C. The protein-containing supernatant was exchanged in a 100 µL phosphate-buffered saline (PBS) using a 3 kDa Amicon® filtration unit (Millipore, Billerica, MA, USA) and, prior to this, was extensively washed in order to completely remove traces of the T-PER buffer. Afterwards, the samples were pooled and the protein concentration was determined using a Pierce Bicinchoninic Acid (BCA) Protein Assay Kit (Thermo Fisher Scientific, Rockford, IL, USA) according to the manufacturer’s protocol, which provided 5 mg aliquots for further analysis.
The recombinant protein HTRA2 with a C-terminal 6xHis-tag motif (Novoprotein Scientific INC., Summit, NJ, USA) and 40 μL HisPurTM Ni-NTA magnetic beads (Thermo Fisher Scientific, Rockford, IL, USA) were spiked into 5 mg homogenized porcine retina. The experiment comprised of four groups: control homogenate (CTRL group), homogenate with 2 μg recombinant HTRA2 (HTRA2 group), homogenate with 2 μg recombinant HTRA2 and 10 μg UCF-101 (UCF-101 group), and homogenate with 2 μg recombinant HTRA2 and 10 μg synthetic CDR peptide (CDR group). The Co-IP of the recombinant HTRA2 and the enrichment of the respective interaction partners was performed with three independent biological replicates for each group (CTRL, HTRA2, UCF-101, and CDR group). After incubation at 4 °C overnight, the 6xHis-tagged protein HTRA2 with the bounded protein interaction partners (co-immunoprecipitation) was isolated with the previously added HisPurTM Ni-NTA magnetic beads (Thermo Fisher Scientific, Rockford, IL, USA) using a magnetic stand. Each bead group was washed twice with 400 μL PBS and the bounded HTRA2 including the protein interaction partners were eluted by pH shift. The protein concentration of each eluate fraction was determined as described above. Afterwards, 50 μg of each eluate fraction was evaporated using a speed vacuum concentrator (SpeedVac) (Eppendorf, Hamburg, Germany) for 45 min at 30 °C and was stored afterwards at −20 °C.
The protein eluate fractions of each group (50 μg; n = 3 biological replicates per group) were separated by 1D SDS PAGE on 10-well NuPAGE® 12% Bis-Tris gels using NuPAGE™ MOPS SDS Running Buffer 20X (Thermo Fisher Scientific, Rockford, IL, USA). The 1D SDS PAGE was performed with the XCell SureLock^TM Mini-Cell Electrophoresis System (Thermo Fisher Scientific, Rockford, IL, USA) under denatured and reduced conditions, as already described in previous publications. The protein separation was performed for 2 h at 4 °C using 150 V, and then the gels were stained with the Novex Colloidal Blue Staining Kit (Thermo Fisher Scientific, Rockford, IL, USA) according to the manufacturer’s protocol. The next day, the gels were destained overnight and scanned using a DGP-9042 scanner (Brother Industries, Nagoya, Japan) at 600 dpi. In-gel trypsin digestion was performed as already described in previous publications. In brief, each protein lane was divided into 17 slices and was subsequently cut into small pieces. […]

HTRA2 = details: immunoprecipitation experiments; cited from earlier work
Excerpt: The mitochondrial serine protease HTRA2 has many versatile biological functions ranging from being an important regulator of apoptosis to being an essential component for neuronal cell survival and mitochondrial homeostasis. Loss of HTRA2 protease function is known to cause neurodegeneration, whereas overactivation of its proteolytic function is associated with cell death and inflammation.

ASGYTFTNYGLSWVR [CDR, synthetic peptide encoding a complementary-determining region 1 (CDR1) of polyclonal antibody molecules]
Effect on retinal ganglion cells (RGCs) in an organ culture model for glaucoma [1]: neuroprotective effects
FGF2 (Fibroblast growth factor 2) as significant interaction partner of HTRA2 ([2]; HTRA2 alone: -): √ (Proteins fulfilled filtering criteria (p < 0.01; log2 fold change > 1.5))
FTH1 (Ferritin heavy chain) as significant interaction partner of HTRA2 ([2]; HTRA2 alone: -): √ (Proteins fulfilled filtering criteria (p < 0.01; log2 fold change > 1.5))
GTF2F2 (General transcription factor IIF subunit 2) as significant interaction partner of HTRA2 ([2]; HTRA2 alone: -): - (Proteins failed to fulfill the filtering criteria (p > 0.01; log2 fold change < 1.5))
NAPG (Gamma-soluble NSF attachment protein) as significant interaction partner of HTRA2 ([2]; HTRA2 alone: -): √ (Proteins fulfilled filtering criteria (p < 0.01; log2 fold change > 1.5))
PDZD11 (PDZ domain-containing protein 11) as significant interaction partner of HTRA2 ([2]; HTRA2 alone: -): √ (Proteins fulfilled filtering criteria (p < 0.01; log2 fold change > 1.5))
PGRMC1 (Membrane-associated progesterone receptor component 1) as significant interaction partner of HTRA2 ([2]; HTRA2 alone: -): - (Proteins failed to fulfill the filtering criteria (p > 0.01; log2 fold change < 1.5))
PLRG1 (Pleiotropic regulator 1) as significant interaction partner of HTRA2 ([2]; HTRA2 alone: -): √ (Proteins fulfilled filtering criteria (p < 0.01; log2 fold change > 1.5))
POLR2E (DNA-directed RNA polymerases I, II, and III subunit RPABC1) as significant interaction partner of HTRA2 ([2]; HTRA2 alone: -): √ (Proteins fulfilled filtering criteria (p < 0.01; log2 fold change > 1.5))
PPA1 (Inorganic pyrophosphatase) as significant interaction partner of HTRA2 ([2]; HTRA2 alone: -): - (Proteins failed to fulfill the filtering criteria (p > 0.01; log2 fold change < 1.5))
SFRP1 (Secreted frizzled-related protein 1) as significant interaction partner of HTRA2 ([2]; HTRA2 alone: -): √ (Proteins fulfilled filtering criteria (p < 0.01; log2 fold change > 1.5))
TUBA1C (Tubulin alpha-1C chain) as significant interaction partner of HTRA2 ([2]; HTRA2 alone: -): √ (Proteins fulfilled filtering criteria (p < 0.01; log2 fold change > 1.5))
UBE2N (Ubiquitin-conjugating enzyme E2 N) as significant interaction partner of HTRA2 ([2]; HTRA2 alone: -): √ (Proteins fulfilled filtering criteria (p < 0.01; log2 fold change > 1.5))
CDC42 (Cell division control protein 42 homolog) as significant interaction partner of HTRA2 ([2]; HTRA2 alone: n.d.): √ (Proteins fulfilled filtering criteria (p < 0.01; log2 fold change > 1.5))
COPE (Coatomer subunit epsilon) as significant interaction partner of HTRA2 ([2]; HTRA2 alone: n.d.): - (Proteins failed to fulfill the filtering criteria (p > 0.01; log2 fold change < 1.5))
MRPL2 (39S ribosomal protein L2, mitochondrial) as significant interaction partner of HTRA2 ([2]; HTRA2 alone: n.d.): √ (Proteins fulfilled filtering criteria (p < 0.01; log2 fold change > 1.5))
SNX3 (Sorting nexin-3) as significant interaction partner of HTRA2 ([2]; HTRA2 alone: n.d.): √ (Proteins fulfilled filtering criteria (p < 0.01; log2 fold change > 1.5))
SOWAHA (Ankyrin repeat domain-containing protein SOWAHA) as significant interaction partner of HTRA2 ([2]; HTRA2 alone: n.d.): √ (Proteins fulfilled filtering criteria (p < 0.01; log2 fold change > 1.5))
TIMM13 (Mitochondrial import inner membrane translocase subunit Tim13) as significant interaction partner of HTRA2 ([2]; HTRA2 alone: n.d.): √ (Proteins fulfilled filtering criteria (p < 0.01; log2 fold change > 1.5))
TUBB8 (Tubulin beta-8 chain) as significant interaction partner of HTRA2 ([2]; HTRA2 alone: n.d.): √ (Proteins fulfilled filtering criteria (p < 0.01; log2 fold change > 1.5))
AGPS (Alkyldihydroxyacetonephosphate synthase, peroxisomal) as significant interaction partner of HTRA2 ([2]; HTRA2 alone: √): √ (Proteins fulfilled filtering criteria (p < 0.01; log2 fold change > 1.5))
ANK2 (Ankyrin-2) as significant interaction partner of HTRA2 ([2]; HTRA2 alone: √): - (Proteins failed to fulfill the filtering criteria (p > 0.01; log2 fold change < 1.5))
AP2A1 (AP-2 complex subunit alpha-1) as significant interaction partner of HTRA2 ([2]; HTRA2 alone: √): - (Proteins failed to fulfill the filtering criteria (p > 0.01; log2 fold change < 1.5))
AP3D1 (AP-3 complex subunit delta-1) as significant interaction partner of HTRA2 ([2]; HTRA2 alone: √): - (Proteins failed to fulfill the filtering criteria (p > 0.01; log2 fold change < 1.5))
AUH (Methylglutaconyl-CoA hydratase, mitochondrial) as significant interaction partner of HTRA2 ([2]; HTRA2 alone: √): √ (Proteins fulfilled filtering criteria (p < 0.01; log2 fold change > 1.5))
CS (Citrate synthase, mitochondrial) as significant interaction partner of HTRA2 ([2]; HTRA2 alone: √): - (Proteins failed to fulfill the filtering criteria (p > 0.01; log2 fold change < 1.5))
CSTB (Cystatin-B) as significant interaction partner of HTRA2 ([2]; HTRA2 alone: √): √ (Proteins fulfilled filtering criteria (p < 0.01; log2 fold change > 1.5))
DNAJA3 (DnaJ homolog subfamily A member 3, mitochondrial) as significant interaction partner of HTRA2 ([2]; HTRA2 alone: √): - (Proteins failed to fulfill the filtering criteria (p > 0.01; log2 fold change < 1.5))
DTD1 (D-aminoacyl-tRNA deacylase 1) as significant interaction partner of HTRA2 ([2]; HTRA2 alone: √): - (Proteins failed to fulfill the filtering criteria (p > 0.01; log2 fold change < 1.5))
EIF2S3 (Eukaryotic translation initiation factor 2 subunit 3) as significant interaction partner of HTRA2 ([2]; HTRA2 alone: √): - (Proteins failed to fulfill the filtering criteria (p > 0.01; log2 fold change < 1.5))
FAM30A (Putative uncharacterized protein FAM30A) as significant interaction partner of HTRA2 ([2]; HTRA2 alone: √): - (Proteins failed to fulfill the filtering criteria (p > 0.01; log2 fold change < 1.5))
FLNA (Filamin-A) as significant interaction partner of HTRA2 ([2]; HTRA2 alone: √): - (Proteins failed to fulfill the filtering criteria (p > 0.01; log2 fold change < 1.5))
GDI1 (Rab GDP dissociation inhibitor alpha) as significant interaction partner of HTRA2 ([2]; HTRA2 alone: √): √ (Proteins fulfilled filtering criteria (p < 0.01; log2 fold change > 1.5))
GLO1 (Lactoylglutathione lyase) as significant interaction partner of HTRA2 ([2]; HTRA2 alone: √): √ (Proteins fulfilled filtering criteria (p < 0.01; log2 fold change > 1.5))
GNL1 (Guanine nucleotide-binding protein-like 1) as significant interaction partner of HTRA2 ([2]; HTRA2 alone: √): - (Proteins failed to fulfill the filtering criteria (p > 0.01; log2 fold change < 1.5))
HAGH (Hydroxyacylglutathione hydrolase, mitochondrial) as significant interaction partner of HTRA2 ([2]; HTRA2 alone: √): - (Proteins failed to fulfill the filtering criteria (p > 0.01; log2 fold change < 1.5))
HTRA2 (Serine protease HTRA2, mitochondrial; target protein) enriched ([2]; HTRA2 alone: √): √ (Proteins fulfilled filtering criteria (p < 0.01; log2 fold change > 1.5))
HYOU1 (Hypoxia up-regulated protein 1) as significant interaction partner of HTRA2 ([2]; HTRA2 alone: √): - (Proteins failed to fulfill the filtering criteria (p > 0.01; log2 fold change < 1.5))
MCTS1 (Malignant T-cell-amplified sequence 1) as significant interaction partner of HTRA2 ([2]; HTRA2 alone: √): √ (Proteins fulfilled filtering criteria (p < 0.01; log2 fold change > 1.5))
ME2 (NAD-dependent malic enzyme, mitochondrial) as significant interaction partner of HTRA2 ([2]; HTRA2 alone: √): - (Proteins failed to fulfill the filtering criteria (p > 0.01; log2 fold change < 1.5))
NCKAP1 (Nck-associated protein 1) as significant interaction partner of HTRA2 ([2]; HTRA2 alone: √): - (Proteins failed to fulfill the filtering criteria (p > 0.01; log2 fold change < 1.5))
PACS1 (Phosphofurin acidic cluster sorting protein 1) as significant interaction partner of HTRA2 ([2]; HTRA2 alone: √): - (Proteins failed to fulfill the filtering criteria (p > 0.01; log2 fold change < 1.5))
POTEE (POTE ankyrin domain family member E) as significant interaction partner of HTRA2 ([2]; HTRA2 alone: √): - (Proteins failed to fulfill the filtering criteria (p > 0.01; log2 fold change < 1.5))
PSMC1 (26S proteasome regulatory subunit 4) as significant interaction partner of HTRA2 ([2]; HTRA2 alone: √): - (Proteins failed to fulfill the filtering criteria (p > 0.01; log2 fold change < 1.5))
PTGES3 (Prostaglandin E synthase 3) as significant interaction partner of HTRA2 ([2]; HTRA2 alone: √): √ (Proteins fulfilled filtering criteria (p < 0.01; log2 fold change > 1.5))
RPS12 (40S ribosomal protein S12) as significant interaction partner of HTRA2 ([2]; HTRA2 alone: √): - (Proteins failed to fulfill the filtering criteria (p > 0.01; log2 fold change < 1.5))
SPTBN1 (Spectrin beta chain, non-erythrocytic 1) as significant interaction partner of HTRA2 ([2]; HTRA2 alone: √): - (Proteins failed to fulfill the filtering criteria (p > 0.01; log2 fold change < 1.5))
UBE2V1 (Ubiquitin-conjugating enzyme E2 variant 1) as significant interaction partner of HTRA2 ([2]; HTRA2 alone: √): √ (Proteins fulfilled filtering criteria (p < 0.01; log2 fold change > 1.5))
Affinity for the target protein HTRA2 (HTRA2): high affinity

Reference: article PMC8427973, “Regulation of the HTRA2 Protease Activity by an Inhibitory Antibody-Derived Peptide Ligand and the Influence on HTRA2-Specific Protein Interaction Networks in Retinal Tissues” (Biomedicines, 2021)
